From the NIST ThermoML archive (doi:10.1016/j.fluid.2018.04.025)

Assay: xn = mol fraction of the nth substance listed
Conditions: 101 kPa, Liquid; for viscosity: Falling or rolling sphere viscometry; for speed of sound: Frequency=3 MHz, Sing-around technique in a fixed-path interferometer; for mass density: Vibrating tube method

CCCC[n+]1ccn(C)c1.O=S(=O)([N-]S(=O)(=O)C(F)(F)F)C(F)(F)F + CCCO
Conditions	mass density [kg/m3]	speed of sound [m/s]	viscosity [mPa·s]
298.15 K, x1 = 0.1034	997.935	1181.5	3.73
298.15 K, x1 = 0.203	1117.34	1181.2	5.98
298.15 K, x1 = 0.3043	1200.89	1188.3	8.11
298.15 K, x1 = 0.409	1263.74	1196.8	10.82
298.15 K, x1 = 0.5068	1308.36	1203	14.12
298.15 K, x1 = 0.603	1343.44	1209.4	19.03
298.15 K, x1 = 0.6981	1371.86	1214.5	24.41
298.15 K, x1 = 0.809	1399.1	1219.9	31.43
298.15 K, x1 = 0.8925	1416.56	1223.7	39.52
298.15 K, x1 = 1	1436.02	1227.3	51.22
303.15 K, x1 = 0.1034	993.513	1167.2	3.24
303.15 K, x1 = 0.203	1112.85	1168	5.16
303.15 K, x1 = 0.3043	1196.18	1175.7	6.94
303.15 K, x1 = 0.409	1259	1184.7	9.22
303.15 K, x1 = 0.5068	1303.62	1191.2	11.91
303.15 K, x1 = 0.603	1338.71	1197.8	16.24
303.15 K, x1 = 0.6981	1367.11	1203.2	20.52
303.15 K, x1 = 0.809	1394.38	1208.6	26.11
303.15 K, x1 = 0.8925	1411.81	1212.6	32.53
303.15 K, x1 = 1	1431.22	1216.3	41.91
308.15 K, x1 = 0.1034	989.047	1152.9	2.85
308.15 K, x1 = 0.203	1108.26	1154.8	4.5
308.15 K, x1 = 0.3043	1191.48	1163.1	6.01
308.15 K, x1 = 0.409	1254.22	1172.6	7.94
308.15 K, x1 = 0.5068	1298.84	1179.5	10.21
308.15 K, x1 = 0.603	1333.94	1186.3	13.72
308.15 K, x1 = 0.6981	1362.35	1191.8	17.43
308.15 K, x1 = 0.809	1389.63	1197.5	22.13
308.15 K, x1 = 0.8925	1407.06	1201.6	27.21
308.15 K, x1 = 1	1426.43	1205.5	34.63
313.15 K, x1 = 0.1034	984.572	1138.7	2.53
313.15 K, x1 = 0.203	1103.58	1141.7	3.95
313.15 K, x1 = 0.3043	1186.72	1150.7	5.25
313.15 K, x1 = 0.409	1249.43	1160.6	6.9
313.15 K, x1 = 0.5068	1294.03	1167.8	8.85
313.15 K, x1 = 0.603	1329.15	1175	11.93
313.15 K, x1 = 0.6981	1357.57	1180.7	14.94
313.15 K, x1 = 0.809	1384.85	1186.4	18.72
313.15 K, x1 = 0.8925	1402.29	1190.7	22.94
313.15 K, x1 = 1	1421.64	1194.7	28.93
318.15 K, x1 = 0.1034	979.997	1124.5	2.27
318.15 K, x1 = 0.203	1098.85	1128.7	3.69
318.15 K, x1 = 0.3043	1181.93	1138.3	4.84
318.15 K, x1 = 0.409	1244.67	1148.8	6.15
318.15 K, x1 = 0.5068	1289.19	1156.3	7.74
318.15 K, x1 = 0.603	1324.35	1163.7	10.34
318.15 K, x1 = 0.6981	1352.76	1169.5	13.01
318.15 K, x1 = 0.809	1380.05	1175.5	16.35
318.15 K, x1 = 0.8925	1397.5	1180	19.74
318.15 K, x1 = 1	1416.84	1184	24.63
323.15 K, x1 = 0.1034	975.381	1110.5	2.03
323.15 K, x1 = 0.203	1094.03	1115.8	2.98
323.15 K, x1 = 0.3043	1177.02	1126	3.93
323.15 K, x1 = 0.409	1239.67	1137	5.25
323.15 K, x1 = 0.5068	1284.24	1144.8	6.82
323.15 K, x1 = 0.603	1319.4	1152.6	9.13
323.15 K, x1 = 0.6981	1347.82	1158.6	11.42
323.15 K, x1 = 0.809	1375.13	1164.6	14.23
323.15 K, x1 = 0.8925	1392.58	1169.3	17.01
323.15 K, x1 = 1	1411.89	1173.5	21.11

CCCC[n+]1ccn(C)c1.O=S(=O)([N-]S(=O)(=O)C(F)(F)F)C(F)(F)F + CCCCO
Conditions	mass density [kg/m3]	speed of sound [m/s]	viscosity [mPa·s]
298.15 K, x1 = 0.1041	977.145	1204.1	4.37
298.15 K, x1 = 0.203	1088.59	1195.1	6.8
298.15 K, x1 = 0.3026	1170.97	1196.1	9.05
298.15 K, x1 = 0.409	1238.03	1200.2	11.83
298.15 K, x1 = 0.4987	1282.27	1204.3	14.91
298.15 K, x1 = 0.603	1325.15	1209.3	19.73
298.15 K, x1 = 0.6973	1357.81	1214.1	24.95
298.15 K, x1 = 0.809	1390.36	1219.2	32.11
298.15 K, x1 = 0.9104	1415.6	1223	40.26
298.15 K, x1 = 1	1436.02	1227.3	51.22
303.15 K, x1 = 0.1041	972.795	1189.7	3.85
303.15 K, x1 = 0.203	1084	1181.7	5.85
303.15 K, x1 = 0.3026	1166.33	1183.4	7.68
303.15 K, x1 = 0.409	1233.48	1188.1	9.93
303.15 K, x1 = 0.4987	1277.72	1192.4	12.53
303.15 K, x1 = 0.603	1320.71	1197.7	16.62
303.15 K, x1 = 0.6973	1353.3	1202.5	20.95
303.15 K, x1 = 0.809	1385.78	1207.8	26.73
303.15 K, x1 = 0.9104	1411.02	1211.9	33.01
303.15 K, x1 = 1	1431.22	1216.3	41.91
308.15 K, x1 = 0.1041	968.785	1175.3	3.27
308.15 K, x1 = 0.203	1079.65	1168.5	5.03
308.15 K, x1 = 0.3026	1161.89	1170.8	6.62
308.15 K, x1 = 0.409	1228.96	1176	8.51
308.15 K, x1 = 0.4987	1273.42	1180.7	10.71
308.15 K, x1 = 0.603	1316.29	1186.2	14.13
308.15 K, x1 = 0.6973	1348.83	1191.2	17.82
308.15 K, x1 = 0.809	1381.24	1196.7	22.61
308.15 K, x1 = 0.9104	1406.45	1200.9	27.62
308.15 K, x1 = 1	1426.43	1205.5	34.63
313.15 K, x1 = 0.1041	964.582	1161	2.87
313.15 K, x1 = 0.203	1075.17	1155.3	4.39
313.15 K, x1 = 0.3026	1157.28	1158.3	5.75
313.15 K, x1 = 0.409	1224.36	1163.9	7.36
313.15 K, x1 = 0.4987	1268.95	1168.9	9.24
313.15 K, x1 = 0.603	1311.81	1174.7	12.24
313.15 K, x1 = 0.6973	1344.2	1180	15.31
313.15 K, x1 = 0.809	1376.73	1185.6	19.32
313.15 K, x1 = 0.9104	1401.97	1189.9	23.41
313.15 K, x1 = 1	1421.64	1194.7	28.93
318.15 K, x1 = 0.1041	960.208	1146.9	2.53
318.15 K, x1 = 0.203	1070.62	1142.3	3.86
318.15 K, x1 = 0.3026	1152.59	1145.8	5.04
318.15 K, x1 = 0.409	1219.7	1151.9	6.42
318.15 K, x1 = 0.4987	1264.59	1157.2	8.04
318.15 K, x1 = 0.603	1307.37	1163.4	10.61
318.15 K, x1 = 0.6973	1339.66	1168.8	13.32
318.15 K, x1 = 0.809	1372.24	1174.6	16.64
318.15 K, x1 = 0.9104	1397.35	1179.1	19.93
318.15 K, x1 = 1	1416.84	1184	24.63
323.15 K, x1 = 0.1041	955.94	1132.9	2.24
323.15 K, x1 = 0.203	1065.98	1129.4	3.42
323.15 K, x1 = 0.3026	1147.85	1133.5	4.45
323.15 K, x1 = 0.409	1214.91	1140	5.65
323.15 K, x1 = 0.4987	1259.97	1145.7	7.07
323.15 K, x1 = 0.603	1302.8	1152.1	9.29
323.15 K, x1 = 0.6973	1335.11	1157.8	11.74
323.15 K, x1 = 0.809	1367.53	1163.8	14.53
323.15 K, x1 = 0.9104	1392.5	1168.4	17.32
323.15 K, x1 = 1	1411.89	1173.5	21.11
